Test results: ChEMBL document CHEMBL1201862, “PubChem BioAssay data set” (2004)
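Grown in 96-well plates, cells were treated for 48 hours with each compound at five concentrations. Insufficient inhibition: endpoint recorded as highest concentration tested. Abbreviation: GI50, concentration required for 50% inhibition of growth.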 Activity calls are given as the source filed them. Cut-off read from the data, not from the text of the source: active = GI50 up to about 1.1 µM and inactive = higher.

Legend:
Experiment in all cases: NCI-60 cell line screen, 48 h
A549 = test system: A549
ACHN = test system: ACHN
DU-145 = test system: DU-145
HCC 2998 = test system: HCC 2998
HL-60 = test system: HL-60
K562 = test system: K562
M14 = test system: M14
NCI-H23 = test system: NCI-H23
OVCAR-3 = test system: OVCAR-3
OVCAR-4 = test system: OVCAR-4
OVCAR-8 = test system: OVCAR-8
SF-539 = test system: SF-539
SK-MEL-28 = test system: SK-MEL-28
SK-OV-3 = test system: SK-OV-3
SNB-19 = test system: SNB-19
UACC-257 = test system: UACC-257
UACC-62 = test system: UACC-62
UO-31 = test system: UO-31
A498 = test system: A498
SK-MEL-5 = test system: SK-MEL-5

Measured: GI50

COc1cc(OC)cc(OCc2nc3cc(C(F)(F)F)ccc3nc2-c2ccccc2)c1
inactive: A549 > 100 µM | ACHN > 100 µM | DU-145 > 100 µM | HCC 2998 > 100 µM | HL-60 > 100 µM | K562 > 100 µM | M14 > 100 µM | NCI-H23 > 100 µM | OVCAR-3 > 100 µM | OVCAR-4 > 100 µM | OVCAR-8 > 100 µM | SF-539 > 100 µM | SK-MEL-28 > 100 µM | SK-OV-3 > 100 µM | SNB-19 > 100 µM | UACC-257 > 100 µM | UACC-62 > 100 µM | UO-31 > 100 µM

CC(C)C(=O)Nc1nc2[nH]cnc2c(=O)[nH]1
inactive: A498 > 100 µM | A549 > 100 µM | ACHN > 100 µM | HCC 2998 > 100 µM | HL-60 > 100 µM | K562 > 100 µM | M14 > 100 µM | NCI-H23 > 100 µM | OVCAR-3 > 100 µM | OVCAR-4 > 100 µM | OVCAR-8 > 100 µM | SF-539 > 100 µM | SK-MEL-28 > 100 µM | SK-MEL-5 > 100 µM | SK-OV-3 > 100 µM | SNB-19 > 100 µM | UACC-257 > 100 µM | UACC-62 > 100 µM | UO-31 > 100 µM

CC(C)(C)c1cc(-c2c3nc(c(-c4cc(C(C)(C)C)cc(C(C)(C)C)c4)c4ccc([nH]4)c(-c4cc(C(C)(C)C)cc(C(C)(C)C)c4)c4nc(c(-c5cc(C(C)(C)C)cc(C(C)(C)C)c5)c5ccc2[nH]5)C=C4)C=C3)cc(C(C)(C)C)c1
inactive: A498 > 100 µM | A549 > 100 µM | ACHN > 100 µM | HCC 2998 > 100 µM | HL-60 > 100 µM | K562 > 100 µM | M14 > 100 µM | NCI-H23 > 100 µM | OVCAR-3 > 100 µM | OVCAR-4 > 100 µM | OVCAR-8 > 100 µM | SF-539 > 100 µM | SK-MEL-28 > 100 µM | SK-MEL-5 > 100 µM | SK-OV-3 > 100 µM | SNB-19 > 100 µM | UACC-257 > 100 µM | UACC-62 > 100 µM | UO-31 > 100 µM

CCCCSN1C(=O)c2ccccc2C1=S
inactive: A498 > 100 µM | A549 > 100 µM | ACHN > 100 µM | HCC 2998 73.5 µM | HL-60 21.4 µM | K562 22.9 µM | M14 41.6 µM | NCI-H23 > 100 µM | OVCAR-3 > 100 µM | OVCAR-4 76.6 µM | OVCAR-8 60.4 µM | SF-539 33.3 µM | SK-MEL-28 > 100 µM | SK-MEL-5 60.5 µM | SK-OV-3 > 100 µM | SNB-19 > 100 µM | UACC-257 57.3 µM | UACC-62 55 µM | UO-31 53.3 µM

C(=C\c1ccc2ccccc2c1Nc1ccccc1)/c1ccccc1
inactive: A498 18.3 µM | A549 49.3 µM | ACHN 20.6 µM | HCC 2998 > 70.5 µM | HL-60 > 100 µM | K562 11.9 µM | M14 18.7 µM | NCI-H23 19.9 µM | OVCAR-3 22.4 µM | OVCAR-4 8.15 µM | OVCAR-8 22 µM | SF-539 32.2 µM | SK-MEL-28 46 µM | SK-MEL-5 78.3 µM | SK-OV-3 29.8 µM | SNB-19 28 µM | UACC-257 > 75 µM | UACC-62 51.9 µM | UO-31 29.8 µM

CCNC1=Nc2ccc(Cl)cc2C(c2ccccc2)=NN1
inactive: A498 29.9 µM | A549 35.7 µM | ACHN 31.7 µM | HCC 2998 18.7 µM | HL-60 22.3 µM | K562 6.38 µM | M14 17.3 µM | NCI-H23 27.5 µM | OVCAR-3 17.5 µM | OVCAR-4 31.6 µM | OVCAR-8 26.8 µM | SF-539 19.8 µM | SK-MEL-28 17.5 µM | SK-MEL-5 14.8 µM | SK-OV-3 37.1 µM | SNB-19 41.7 µM | UACC-257 18 µM | UACC-62 14.6 µM | UO-31 30.2 µM

Cc1ccc(NC(=O)C2C3C=CC(O3)C2C(=O)O)cc1 (centres undefined)
inactive: A498 > 100 µM | A549 > 100 µM | ACHN > 100 µM | HCC 2998 > 100 µM | HL-60 61.5 µM | K562 > 100 µM | M14 > 100 µM | NCI-H23 > 100 µM | OVCAR-3 > 100 µM | OVCAR-4 > 100 µM | OVCAR-8 > 100 µM | SF-539 > 100 µM | SK-MEL-28 > 100 µM | SK-MEL-5 > 100 µM | SK-OV-3 > 100 µM | SNB-19 > 100 µM | UACC-257 87.1 µM | UACC-62 > 100 µM | UO-31 > 100 µM

CCc1cccc(C)c1NC(=O)NS(=O)(=O)c1ccc(C)cc1
inactive: A498 > 100 µM | A549 > 100 µM | ACHN > 100 µM | HCC 2998 > 100 µM | HL-60 > 100 µM | K562 > 100 µM | M14 > 100 µM | NCI-H23 > 100 µM | OVCAR-3 > 100 µM | OVCAR-4 > 100 µM | OVCAR-8 > 100 µM | SF-539 > 100 µM | SK-MEL-28 > 100 µM | SK-MEL-5 > 100 µM | SK-OV-3 > 100 µM | SNB-19 > 100 µM | UACC-257 > 100 µM | UACC-62 > 100 µM | UO-31 > 100 µM

ON=C1CCC(c2ccccc2)CC1 (centres undefined)
inactive: A498 > 100 µM | A549 > 100 µM | ACHN > 100 µM | HCC 2998 > 100 µM | HL-60 > 100 µM | K562 > 100 µM | M14 > 100 µM | NCI-H23 > 100 µM | OVCAR-3 > 100 µM | OVCAR-4 > 100 µM | OVCAR-8 > 100 µM | SF-539 > 100 µM | SK-MEL-28 > 100 µM | SK-MEL-5 > 100 µM | SK-OV-3 > 100 µM | SNB-19 > 100 µM | UACC-257 > 100 µM | UACC-62 > 100 µM | UO-31 > 100 µM

Cc1cc(Cl)ccc1NC(=O)CC1SC(N)=NC1=O (centres undefined)
inactive: A498 17.7 µM | A549 > 100 µM | ACHN > 100 µM | HCC 2998 > 100 µM | HL-60 > 100 µM | K562 > 100 µM | M14 > 100 µM | NCI-H23 > 100 µM | OVCAR-3 > 100 µM | OVCAR-4 > 100 µM | OVCAR-8 > 100 µM | SF-539 > 100 µM | SK-MEL-28 > 100 µM | SK-MEL-5 > 100 µM | SK-OV-3 > 100 µM | SNB-19 > 100 µM | UACC-257 > 100 µM | UACC-62 > 100 µM | UO-31 > 100 µM

COc1ccc2c(c1)-c1c(c3ccccc3n1CCN1CCOCC1)CC2
inactive: A549 27.1 µM | ACHN 35.7 µM | DU-145 58.9 µM | HCC 2998 18.2 µM | K562 15.6 µM | M14 35 µM | NCI-H23 21.7 µM | OVCAR-3 18.2 µM | OVCAR-4 56.6 µM | OVCAR-8 16 µM | SF-539 25 µM | SK-MEL-28 55.1 µM | SK-MEL-5 14.5 µM | SK-OV-3 53.1 µM | SNB-19 21 µM | UACC-257 36.7 µM | UACC-62 18.8 µM | UO-31 22.6 µM

O=C(O)COc1ccc(C(=O)/C(SS/C(C(=O)c2ccc(OCC(=O)O)c(Cl)c2Cl)=C2\C=C(c3ccc(Cl)cc3)SS2)=C2/C=C(c3ccc(Cl)cc3)SS2)c(Cl)c1Cl
inactive: A498 31.1 µM | A549 21.4 µM | ACHN 8.39 µM | HCC 2998 12.4 µM | K562 2.43 µM | M14 13.5 µM | NCI-H23 9.23 µM | OVCAR-3 5.37 µM | OVCAR-4 5.27 µM | OVCAR-8 5.85 µM | SF-539 5.9 µM | SK-MEL-28 25.2 µM | SK-MEL-5 16.7 µM | SK-OV-3 56.1 µM | SNB-19 8.99 µM | UACC-257 78.2 µM | UACC-62 9.51 µM | UO-31 4.89 µM
active: HL-60 0.252 µM

CC1=C2C(c3ccccc3)(c3ccccc3)C3C=CC2(C=N3)N(C(=O)NC2CCCCC2)C1=O (centres undefined)
inactive: A498 17.5 µM | A549 16.9 µM | ACHN 19.5 µM | HCC 2998 17.9 µM | HL-60 14.7 µM | K562 17.5 µM | M14 17.5 µM | NCI-H23 18.4 µM | OVCAR-3 14.8 µM | OVCAR-4 17.6 µM | OVCAR-8 17.9 µM | SF-539 15.9 µM | SK-MEL-28 16.7 µM | SK-MEL-5 16.8 µM | SK-OV-3 28.7 µM | SNB-19 17.6 µM | UACC-257 17.1 µM | UACC-62 18.7 µM | UO-31 14.3 µM

O=[N+]([O-])c1ccccc1[S+]([O-])c1ccccc1 (centres undefined)
inactive: A498 63.2 µM | A549 52.8 µM | ACHN 69.7 µM | HCC 2998 97.7 µM | HL-60 27.7 µM | K562 35.1 µM | M14 > 100 µM | NCI-H23 44.5 µM | OVCAR-3 73.8 µM | OVCAR-4 49.2 µM | OVCAR-8 > 100 µM | SF-539 70.6 µM | SK-MEL-28 > 100 µM | SK-MEL-5 36.8 µM | SK-OV-3 > 100 µM | SNB-19 87.3 µM | UACC-257 20.7 µM | UACC-62 > 100 µM | UO-31 63.5 µM
